Starred links: 1 amine or outer side, 2 acyl side, 3 side chain; linkers in the order of their positions; H or OH if unused. Positions of bridges follow the written chain, without caps; N, C: chain ends. Residues, ends and D or L forms follow the SMILES beside them. Groups on a side chain read outwards from the residue. *: point of attachment. C20 diacid = O=C(O)CCCCCCCCCCCCCCCCCCC(=O)*; C18 diacid = O=C(O)CCCCCCCCCCCCCCCCC(=O)*; γGlu = O=C(O)[C@H](CCC(=O)[*:2])N[*:1]; AEEA = NCCOCCOCC(=O)O
Tests used:
ad libitum fed rat = assay: Assay (I) efficacy testing on appetite (food intake) using an ad libitum fed rat model; assay type: in vivo, Sprague Dawley (SD) rats; settings: 3 nmol/kg
How it was run: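 Ad libitum fed Sprague Dawley rats, 200-250 g, singly housed on reversed light cycle, got one ip, po or sc dose of 0.01-3 mg/kg just before lights off; groups of 5-8 with vehicle control. Food intake recorded hourly for 7 h, then at 24 h and sometimes 48 h; Grubbs outliers excluded.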

[1] = Assay (III) ThT fibrillation assay for physical stability; assay type: physicochemical; settings: for ThT pH 4.0 lag time: pH 4.0, ThT fibrillation assay
How it was run: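 Freshly prepared, pH-adjusted formulations with 1 μM ThT incubated at 37 °C under 960 rpm orbital shaking (1 mm), fluorescence (ex 444, em 485 nm) read every 20 min. […] Peptide content before and after measured by reverse-phase HPLC against pramlintide standard.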

SMILES | Food intake reduction 0-24 h 3 nmol/kg (%) (ad libitum fed rat) | Food intake reduction 24-48 h 3 nmol/kg (%) (ad libitum fed rat) | ThT pH 4.0 lag time (physical stability in fibrillogenesis assay) [1] [h] | ThT pH 4.0 lag time [1] [h]
CC[C@H](C)[C@H](NC(=O)[C@@H]1CCCN1C(=O)CNC(=O)[C@H](Cc1ccccc1)NC(=O)[C@H](CC(N)=O)NC(=O)[C@H](CCC(N)=O)NC(=O)[C@H](CO)NC(=O)[C@H](CO)NC(=O)[C@H](Cc1c[nH]cn1)NC(=O)[C@H](Cc1c[nH]cn1)NC(=O)[C@H](CC(C)C)NC(=O)[C@H](Cc1ccccc1)NC(=O)[C@H](CCC(=O)O)NC(=O)[C@H](C)NC(=O)[C@H](CC(C)C)NC(=O)[C@H](CCCNC(=N)N)NC(=O)[C@H](CCC(N)=O)NC(=O)[C@@H](NC(=O)[C@H](C)NC(=O)[C@@H]1CSSC[C@H](NC(=O)[C@H](CCCCN)NC(=O)CC[C@H](NC(=O)CCCCCCCCCCCCCCCCCCC(=O)O)C(=O)O)C(=O)N[C@@H](CC(N)=O)C(=O)N[C@@H]([C@@H](C)O)C(=O)N[C@@H](C)C(=O)N[C@@H]([C@@H](C)O)C(=O)N1)[C@@H](C)O)C(=O)N[C@@H](CC(C)C)C(=O)N1CCC[C@H]1C(=O)N1CCC[C@H]1C(=O)N[C@H](C(=O)N[C@@H](CC(N)=O)C(=O)N[C@H](C(=O)NCC(=O)N[C@@H](CO)C(=O)N[C@@H](Cc1c[nH]cn1)C(=O)N[C@H](C(=O)N[C@@H](Cc1ccc(O)cc1)C(N)=O)[C@@H](C)O)C(C)C)[C@@H](C)O [Example 117, N-alpha-[(S)-4-Carboxy-4-(19-carboxynonadecanoylamino)butyryl]-[Glu14,His17,Gln21,His35)-pramlintide] ({C20 diacid-γGlu}-KCNTATCATQRLAEFLHHSSQNFGPILPPTNVGSHTY-NH2; disulfide 2-7) | 50 | 35 | >45 | >45
CC[C@H](C)[C@H](NC(=O)[C@H](CCCCNC(=O)COCCOCCNC(=O)COCCOCCNC(=O)CC[C@H](NC(=O)CCCCCCCCCCCCCCCCC(=O)O)C(=O)O)NC(=O)CNC(=O)[C@H](Cc1ccccc1)NC(=O)[C@H](CC(N)=O)NC(=O)[C@H](CC(N)=O)NC(=O)[C@H](CO)NC(=O)[C@H](CO)NC(=O)[C@H](Cc1c[nH]cn1)NC(=O)[C@H](Cc1c[nH]cn1)NC(=O)[C@H](CC(C)C)NC(=O)[C@H](Cc1ccccc1)NC(=O)[C@H](CCC(=O)O)NC(=O)[C@H](C)NC(=O)[C@H](CC(C)C)NC(=O)[C@H](CCCNC(=N)N)NC(=O)[C@H](CCC(N)=O)NC(=O)[C@@H](NC(=O)[C@H](C)NC(=O)[C@@H]1CSSC[C@H](NC(=O)[C@@H](N)CCCCN)C(=O)N[C@@H](CC(N)=O)C(=O)N[C@@H]([C@@H](C)O)C(=O)N[C@@H](C)C(=O)N[C@@H]([C@@H](C)O)C(=O)N1)[C@@H](C)O)C(=O)N[C@@H](CC(C)C)C(=O)N1CCC[C@H]1C(=O)N1CCC[C@H]1C(=O)N[C@H](C(=O)N[C@@H](CC(N)=O)C(=O)N[C@H](C(=O)NCC(=O)N[C@@H](CO)C(=O)N[C@@H](CC(N)=O)C(=O)N[C@H](C(=O)N[C@@H](Cc1ccc(O)cc1)C(N)=O)[C@@H](C)O)C(C)C)[C@@H](C)O [Example 73, N-epsilon25-[2-(2-{2-[2-(2-{2-[(S)-4-Carboxy-4-(17-carboxyheptadecanoylamino)butyrylamino]ethoxy}ethoxy)acetylamino]ethoxy}ethoxy)acetyl]-[Glu14,His17,Lys25]-pramlintide] (H-KCNTATCATQRLAEFLHHSSNNFGK([AEEA-AEEA-γGlu-C18 diacid])ILPPTNVGSNTY-NH2; disulfide 2-7; N-terminus assumed) | 29 | 2 |  | >45
CC[C@H](C)[C@H](NC(=O)[C@@H]1CCCN1C(=O)CNC(=O)[C@H](Cc1ccccc1)NC(=O)[C@H](CC(N)=O)NC(=O)[C@H](CC(N)=O)NC(=O)[C@H](CO)NC(=O)[C@H](CO)NC(=O)[C@H](Cc1c[nH]cn1)NC(=O)[C@H](Cc1c[nH]cn1)NC(=O)[C@H](CC(C)C)NC(=O)[C@H](Cc1ccccc1)NC(=O)[C@H](CCC(=O)O)NC(=O)[C@H](C)NC(=O)[C@H](CC(C)C)NC(=O)[C@H](CCCNC(=N)N)NC(=O)[C@H](CCC(N)=O)NC(=O)[C@@H](NC(=O)[C@H](C)NC(=O)[C@@H]1CSSC[C@H](NC(=O)[C@H](CCCNC(=N)N)NC(=O)CC[C@H](NC(=O)CCCCCCCCCCCCCCCCCCC(=O)O)C(=O)O)C(=O)N[C@@H](CC(N)=O)C(=O)N[C@@H]([C@@H](C)O)C(=O)N[C@@H](C)C(=O)N[C@@H]([C@@H](C)O)C(=O)N1)[C@@H](C)O)C(=O)N[C@@H](CC(C)C)C(=O)N1CCC[C@H]1C(=O)N1CCC[C@H]1C(=O)N[C@H](C(=O)N[C@@H](CC(N)=O)C(=O)N[C@H](C(=O)NCC(=O)N[C@@H](CO)C(=O)N[C@@H](CC(N)=O)C(=O)N[C@H](C(=O)N1CCC[C@H]1C(N)=O)[C@@H](C)O)C(C)C)[C@@H](C)O [Example 96, N-alpha-[(S)-4-Carboxy-4-(19-carboxynonadecanoylamino)butyryl]-[Arg1,Glu14,His17,Pro37]-pramlintide] ({C20 diacid-γGlu}-RCNTATCATQRLAEFLHHSSNNFGPILPPTNVGSNTP-NH2; disulfide 2-7) | 69 | 89 | >45 | >45
CC[C@H](C)[C@H](NC(=O)[C@@H]1CCCN1C(=O)CNC(=O)[C@H](Cc1ccccc1)NC(=O)[C@H](CC(N)=O)NC(=O)[C@H](CC(N)=O)NC(=O)[C@H](CO)NC(=O)[C@H](CO)NC(=O)[C@H](Cc1c[nH]cn1)NC(=O)[C@H](Cc1c[nH]cn1)NC(=O)[C@H](CC(C)C)NC(=O)[C@H](Cc1ccccc1)NC(=O)[C@H](CCC(=O)O)NC(=O)[C@H](C)NC(=O)[C@H](CC(C)C)NC(=O)[C@H](CCCNC(=N)N)NC(=O)[C@H](CCC(N)=O)NC(=O)[C@@H](NC(=O)[C@H](C)NC(=O)[C@@H]1CSSC[C@H](NC(=O)[C@H](CCCNC(=N)N)NC(=O)CNC(=O)CC[C@H](NC(=O)CCCCCCCCCCCCCCCCCCC(=O)O)C(=O)O)C(=O)N[C@@H](CC(N)=O)C(=O)N[C@@H]([C@@H](C)O)C(=O)N[C@@H](C)C(=O)N[C@@H]([C@@H](C)O)C(=O)N1)[C@@H](C)O)C(=O)N[C@@H](CC(C)C)C(=O)N1CCC[C@H]1C(=O)N1CCC[C@H]1C(=O)N[C@H](C(=O)N[C@@H](CC(N)=O)C(=O)N[C@H](C(=O)NCC(=O)N[C@@H](CO)C(=O)N[C@@H](CC(N)=O)C(=O)N[C@H](C(=O)N1CCC[C@H]1C(N)=O)[C@@H](C)O)C(C)C)[C@@H](C)O [Example 101, N-alpha-[(S)-4-Carboxy-4-(19-carboxynonadecanoylamino)butyryl]-Gly-[Arg1,Glu14,His17,Pro37]-pramlintide] ({C20 diacid-γGlu}-GRCNTATCATQRLAEFLHHSSNNFGPILPPTNVGSNTP-NH2; disulfide 3-8) | 70 | 90 | >45 | >45

From US8741836B2, “Polypeptides” (Novo Nordisk A/S, priority 2011, dated 2014)
